Each compound was assayed on zebrafish embryo (assay: Teratogenicity test using zebrafish embryo). Conditions: zebrafish embryos exposed from 6 hours after fertilization, cultured at 28° C. for five days, 0.1% dimethyl sulfoxide.
Format: in vivo
Method: Test Example 4. Teratogenicity Test Using Zebrafish Embryo
Fertilized eggs obtained by mating zebrafish were cultured in a medium (0.3× Danieau's solution) at 28° C. until 6 hours after fertilization. Thereafter, the embryo was transferred to a medium into which the compound expressed by General Formula (1) according to the present invention dissolved in dimethyl sulfoxide was added, and cultured at 28° C. for five days. The concentration of dimethyl sulfoxide in the medium was 0.1%. 12 embryos were tested in each test concentration of the present invention.
Observation sites: notochord, tail, somite, eye, otolith, jaw, heart, blood vessel, abdomen, fin, etc.
From the results of these observations, the presence or absence of teratogenicity risk of the compound expressed by General Formula (1) according to the present invention and six compounds (Compound Nos. 4-10, 1-67, 1-1, 8-125, and 8-22, and a compound encompassed by the claims of Patent Literature 1 (Comparative Compound 4)) disclosed in the aforementioned Patent Literature 1 as the comparative compounds was determined.
It is noted that the teratogenicity test using zebrafish embryo is known to have good high predictivity to the teratogenicity test using the mammals (Reference Literature: Reproductive Toxicology 2012, (33), 155-164).

Question: `CN1C(=O)c2nn(-c3cccnc3)cc2Oc2ncc(C(F)(F)F)cc21` [Comparative Compound 1] was tested. Which Teratogenicity risk did it give?
Answer: Yes

Question: With `COCN1C(=O)c2nn(-c3cccnc3)cc2Oc2ccccc21` [Comparative Compound 2] as the compound, how does the Teratogenicity risk read?
Answer: Yes

Question: Which Teratogenicity risk does the source give for `O=C1Nc2ccccc2Oc2cn(-c3cccnc3)nc21` [Comparative Compound 3] here?
Answer: Yes

Question: How did the Teratogenicity risk turn out when `COCN1C(=O)c2nn(-c3cccnc3)cc2Oc2cc(OC(F)(F)F)ccc21` [Comparative Compound 4] was run?
Answer: Yes

Question: Which Teratogenicity risk does the source give for `CN1C(=O)c2nn(-c3cccnc3)cc2Oc2cc(OC(F)(F)F)ccc21` [Comparative Compound 5] here?
Answer: Yes

Question: How did the Teratogenicity risk turn out when `COCN1C(=O)c2nn(-c3cccnc3)cc2Oc2c(F)cccc21` [Comparative Compound 6] was run?
Answer: Yes

Question: `COCN1C(=O)c2nn(-c3cccnc3)cc2Oc2ncccc21` [Compound No. 1-1, 9-(methoxymethyl)-2-(pyridin-3-yl)-2H-pyrazolo[3,4-f]pyrido[2,3-b][1,4]oxazepine-10(9H)-one] was tested. Which Teratogenicity risk did it give?
Answer: No

The compounds below were run on Small Brown Planthopper (Laodelphax Striatellus) (assay: Test of insecticidal efficacy against Small Brown Planthopper (rice seedling dip)). Conditions: 192 h, read-out: corrected insect mortality judgement against small brown planthopper.
Format: in vivo
Method: Test Example 2. Test of Insecticidal Efficacy Against Small Brown Planthopper (Laodelphax Striatellus)
The compound or salt thereof expressed by General Formula (1) according to the present invention was dispersed in water and the dispersion was diluted to 50 ppm in the form of a reagent, after which rice plants raised from seeds (variety: Nipponbare) were soaked in the reagent for 30 seconds and dried under wind, and then placed in glass test tubes, each of which was inoculated with 10 third-instar larvae of small brown planthoppers and sealed with cotton, and eight days after the inoculation, the number of live insects and that of dead insects were examined and the corrected insect mortality was calculated based on the formula below, and judgement was made according to the criteria below.
[formula] [formula] Criteria A—Corrected insect mortality: 100% B—Corrected insect mortality: 99% to 90% C—Corrected insect mortality: 89% to 80% D—Corrected insect mortality: 79% to 50%

Question: `COCN1C(=O)c2nn(-c3cccnc3)cc2Oc2ncccc21` [Compound No. 1-1, 9-(methoxymethyl)-2-(pyridin-3-yl)-2H-pyrazolo[3,4-f]pyrido[2,3-b][1,4]oxazepine-10(9H)-one] was tested. Which mortality at 50 ppm did it give?
Answer: 100%
